Measurements taken from paper PMC8769378, “Underlining the Importance of Peripheral Protic Functional Groups to Enhance the Proton Exchange of Gd-Based MRI Contrast Agents” (Inorganic Chemistry, 2021).
Marks after values point to notes of the source that are not given here.

Tests used:
Assay type in all cases: physicochemical
[1] = Protonation constants of the Gd^III complexes by pH potentiometry; conditions: 0.15 M NaCl, 298 K
Excerpt: The metal complexes of biomedical interest must show a high in vivo stability, which includes high thermodynamic stability and kinetic inertness to allow targeting applications and to avoid possible toxic effects derived by metal ion and ligand release via transmetalation or transchelation reactions.[2],[3],[13] The protonation constants of L2 as well as the stability and the protonation constants of GdL2 and those of the most important endogenous divalent metal complexes (Ca^II-, Zn^II-, and Cu^II) were determined by pH potentiometry (Table 1 and Table S1). In the case of GdL1, we were interested in determining the dissociation constant of the hydroxyl group that was measured also by pH potentiometry (Table 1). […]
The stability and protonation constants of Ca^2+, Zn^2+, and Cu^2+ complexes formed with the […] ligand were determined by pH potentiometric titration. […] The protonation constants of the GdL1 and GdL2 complexes were determined using pH potentiometry by titrating the preprepared complexes from pH = 3.0 to pH = 12 for GdL2 and from pH = 4.0 to pH = 12 for GdL1 with 0.2 M NaOH. The stability constants of GdL2 were determined by the “out-of-cell” technique because of the slow formation reaction. The pH range of the complexation equilibria and the time needed to reach the equilibria were determined by relaxometry for the formation of GdL2. […]

[2] = Stability and protonation constants of Zn^II complexes by pH potentiometry
Excerpt: The metal complexes of biomedical interest must show a high in vivo stability, which includes high thermodynamic stability and kinetic inertness to allow targeting applications and to avoid possible toxic effects derived by metal ion and ligand release via transmetalation or transchelation reactions.[2],[3],[13] The protonation constants of L2 as well as the stability and the protonation constants of GdL2 and those of the most important endogenous divalent metal complexes (Ca^II-, Zn^II-, and Cu^II) were determined by pH potentiometry (Table 1 and Table S1). In the case of GdL1, we were interested in determining the dissociation constant of the hydroxyl group that was measured also by pH potentiometry (Table 1). Experimental details and the definitions and equations used for the evaluation of the equilibrium and kinetic data are summarized in the SI.
The stability and protonation constants of Ca^2+, Zn^2+, and Cu^2+ complexes formed with the L1 ligand were determined by pH potentiometric titration. The metal-to-ligand concentration ratio was 1:1 (the concentration of the ligand was generally 0.002 M). The protonation constants of the GdL1 and GdL2 complexes were determined using pH potentiometry by titrating the preprepared complexes from pH = 3.0 to pH = 12 for GdL2 and from pH = 4.0 to pH = 12 for GdL1 with 0.2 M NaOH. The stability constants of GdL2 were determined by the “out-of-cell” technique because of the slow formation reaction. The pH range of the complexation equilibria and the time needed to reach the equilibria were determined by relaxometry for the formation of GdL2. […] For the calculation of the stability constants of GdL2, besides the protonation constants of ligands, the stability constants of the diprotonated *Gd(H2L2) out-of-cage complexes (considered as intermediates) were also used as fixed values, which were calculated from the pH potentiometric titration curve of the Gd^3+–L2 system obtained in the pH range 1.7–4.0.
For the pH measurements and titrations, the Metrohm 888 Titrando titration workstation Metrohm-6.0234.110 combined electrode was used. […] For the calculation of [H^+] from the measured pH values, the method proposed by Irving et al. was used as follows.[34] […] The differences (A) between the measured (pHread) and calculated (−log[H^+]) pH values were used to obtain the equilibrium H^+ concentration from the pH values measured in the titration experiments (A = 0.024). […]
The stability and protonation constants of CaII-, ZnII-, CuII- and GdIII-complexes of L2, expressed by Eqs. (S2) and (S3), were determined by pH-potentiometry and spectrophotometry at 25 °C in 0.15 M […]
where i=0, 1, 2, 3. […] The stability constant of GdL2 was calculated from the equilibrium data obtained by the “out-of-cell” technique due to the slow complexation reaction. […]

[3] = Conditional stability constant pGd; conditions: pGd = −log[Gd]free, [Gd^3+] = 1 μM, [L] = 10 μM, pH = 7.4; calculated from the constants

O=C(O)CN1CCN(CC(=O)O)CCN(C[C@@H](O)C(=O)O)CCN(CC(=O)O)CC1 [L2, (R)2,2′,2″-(10-(2-Carboxy-2-hydroxyethyl)-1,4,7,10-tetraazacyclododecane-1,4,7-triyl) Triacetic Acid]
Gd(L)H–1 (log KGd(L)H-1, protonation constant of the alkoxide) [1]: 9.58 (3) | Gd(HL) (log K, protonation constant of the Gd complex) ([1]; carboxylate of the 2-hydroxypropanoic arm): 3.36 (3) | ZnH2L (log K) ([2]; 0.15 M NaCl, 25 °C): 3.32 (3) | ZnH3L (log K) ([2]; 0.15 M NaCl, 25 °C): 2.29 (5) | ZnHL (log K, protonation constant of the complex) ([2]; 0.15 M NaCl, 25 °C): 3.86 (5) | ZnL (log K, stability constant) ([2]; I = 0.15 M NaCl, 298 K): 17.81 (6) | pGd [3]: 16.87 ^h
